# Experimental data taken from US7678776B2, “Inclusion complexes of butylphthalide with cyclodextrin or its derivatives, a process for their preparation and the use thereof” (Shijiazhuang Pharma. Group Zhongqi Pharmaceutical …, priority 2002, dated 2010).
# Tested on: marginal ear vein of a rabbit
# Assay: vascular irritation assay
# Assay type: in vivo
# Settings: control group, administered into the ear vein for 3 days
# Method: The vascular irritation assay using inclusion complex of butylphthalide with hydroxypropyl-β-cyclodextrin is provided as follows:
# Eight rabbits were divided into two groups, namely, test group and control group. For the test group, 2.45 g/kg of the inclusion complex together with 40 ml of 5% glucose were instilled via the marginal ear vein of a rabbit at the rate of 1.5 ml/min. The administration was once per day and lasted for 3 days. […] The administration lasted for 3 days.
smiles,measurement,value
"CC(=O)O [10% acetic acid, acetic acid]",vascular irritation (topical findings),"topical hyperaemia, thickening, and exudation"
